According to ChEMBL document CHEMBL3639354, “(EN) 3-sulfonyl-pyrazolo[1,5-a] pyrimidines / antagonists of serotonin 5-HT6 receptors, methods for the production and the use thereof” (2013):

Biological target: 5-hydroxytryptamine receptor 6 (Homo sapiens, UniProt P50406)
Assay: Functional Assay: Functional assay using 5-HT6 receptors.

Chain of 5-hydroxytryptamine receptor 6 (P50406 whole entry): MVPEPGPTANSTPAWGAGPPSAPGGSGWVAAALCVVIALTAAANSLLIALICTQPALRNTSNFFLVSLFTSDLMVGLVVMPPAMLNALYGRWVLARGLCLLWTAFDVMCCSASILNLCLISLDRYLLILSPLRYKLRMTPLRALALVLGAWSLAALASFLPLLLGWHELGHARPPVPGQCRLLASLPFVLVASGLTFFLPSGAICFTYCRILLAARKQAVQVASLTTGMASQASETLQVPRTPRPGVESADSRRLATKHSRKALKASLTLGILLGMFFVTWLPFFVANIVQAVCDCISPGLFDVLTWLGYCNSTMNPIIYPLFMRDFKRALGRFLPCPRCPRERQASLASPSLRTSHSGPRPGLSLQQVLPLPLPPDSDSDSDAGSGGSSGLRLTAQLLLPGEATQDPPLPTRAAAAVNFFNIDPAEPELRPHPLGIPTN

- IC50: 46 nM
SMILES: CSc1nn2c(C)cc(C)nc2c1S(=O)(=O)c1ccc(F)c(Cl)c1
